The values below are quoted from earlier work in patent publication US20020177614A1, “Methods for treating nuerodegenerative diseases including alzheimer's” (priority 2001, published 2002).

For the series, the system named is Diphtheria and Pseudomonas toxins. As to conditions: several bacterial ADP-ribosylating toxins, including Diphtheria and Pseudomonas toxins.

On to `NC(=O)c1cccnc1` [nicotinamide], for which the “effect on bacterial ADP-ribosylating toxins” value is listed as “prevent or reverse the effects”.
